According to patent publication US11008290B2, “Halogenated quinoline derivatives as antimicrobial agents” (University of Florida Research Foundation, Incorporated, priority 2015, dated 2021):
Converted amounts (≈) assume the structure as drawn. “And” between values parts separate entries of the source, which are not always exact repeats. Equal entries are not always repeated. Where two headings read alike, the source gives them in different places. Marks after values point to notes of the source that are not given here.

Experiments:
[1] = tested on: MRSE (ATCC 35984) planktonic cells and biofilms; test: Calgary Biofilm Device (CBD) MBC/MBEC determination; type: cell-based, Staphylococcus epidermidis; settings: CBD; for MBC: planktonic killing, first value of cell
Method: (§1) Biofilm eradication experiments were performed using the Calgary Biofilm Device to determine MBC/MBEC values for various compounds of interest (Innovotech, product code: 19111). The Calgary device (96-well plate with lid containing 96 total pegs to establish biofilms; 1 peg/well) was inoculated with 125 μL of a mid-log phase culture diluted 1,000-fold in tryptic soy broth with 0.5% glucose (TSBG) to establish bacterial biofilms after incubation at 37° C. for 24 hours. The lid of the Calgary device was then removed, washed and transferred to another 96-well plate containing 2-fold serial dilutions of the test compounds (the “challenge plate”). The total volume of media with compound in each well in the challenge plate was 150 μL. The Calgary device was then incubated at 37° C. for 24 hours. The lid was then removed from the challenge plate and MBC/MBEC values were determined using different final assays. […] The MBC values were determined as the concentration giving a lack of visible bacterial growth (e.g., turbidity). For determination of MBEC values, the Calgary device lid (with attached pegs/treated biofilms) was transferred to a new 96-well plate containing 150 μL of fresh TSBG media in each well and incubated for 24 hours at 37° C. to allow viable biofilms to grow and disperse resulting in turbidity after the incubation period. […] In select experiments, treated pegs from the Calgary device were removed from lead biofilm eradicators after final incubation, sonicated for 30 minutes in PBS and plated out to determine biofilm cell killing (e.g., colony forming unit per milliliter, CFU/mL).

[2] = tested on: MRSA-2, MRSE 35984, VRE 700221; test: MIC assays, range stated over the three drug-resistant pathogens; type: cell-based; settings: range over MRSA-2, MRSE, read-out: MIC against these drug-resistant pathogens
Method: (§2) The minimum inhibitory concentration (MIC) for each compound was determined by the broth microdilution method as recommended by the Clinical and Laboratory Standards Institute (CLSI). In a 96-well plate, eleven two-fold serial dilutions of each compound were made in a final volume of 100 μL Luria Broth. Each well was inoculated with ˜10^5 bacterial cells at the initial time of incubation, prepared from a fresh log phase culture (OD600 of 0.5 to 1.0 depending on bacterial strain). […] The concentration range tested for each compound during this study was 0.10 to 100 μM. DMSO served as the vehicle and negative control in each microdilution MIC assay. DMSO was serially diluted with a top concentration of 1% v/v. Bacterial strains used: methicillin-resistant Staphylococcus aureus-2 (MRSA-2; clinical isolate from Shands Hospital in Gainesville, Fla.), methicillin-resistant Staphylococcus epidermidis (MRSE; ATCC 35984), vancomycin-resistant Enterococcus faecium (VRE, ATCC 700221).

human red blood cells = test: Hemolysis assay; type: cell-based
Method: Freshly drawn human red blood cells (hRBC with ethylenediaminetetraacetic acid (EDTA) as an anticoagulant) were washed with Tris-buffered saline (0.01M Tris-base, 0.155M sodium chloride (NaCl), pH 7.2) and centrifuged for 5 minutes at 3500 rpm. The washing was repeated three times with the buffer. In 96-well plate, the test compounds were added to the buffer. […] The plate was then incubated for 1 hour at 37° C. After incubation, the plate is centrifuged for 5 minutes at 3500 rpm. Then 80 μL of the supernatant were transferred to another 96-well plate and the Optical Density (OD) was read at 405 nm. […] The percent of hemolysis was calculated as (OD405 of the compound-OD405 DMSO)/(OD405 Triton X-OD405 buffer).

[3] = tested on: MRSA-2 planktonic cells and biofilms; test: Calgary Biofilm Device (CBD) MBC/MBEC determination; type: cell-based, Staphylococcus aureus; settings: CBD; for MBC: planktonic killing, first value of MBC/MBEC cell
Method: as §1

[4] = tested on: VRE (ATCC 700221) planktonic cells and biofilms; test: as above; type: cell-based, Enterococcus faecium; settings: CBD; for MBC: planktonic killing, first value of cell
Method: as §1

MRSA-2 = test: Mechanistic investigations with metal(II)-cations (MIC assay with 200 μM metal salt); type: cell-based, Staphylococcus aureus; settings: MRSA-2
Method: as §2

[5] = tested on: methicillin-resistant Staphylococcus aureus-2 (MRSA-2; clinical isolate); test: Minimum inhibitory concentration (MIC) susceptibility assay, broth microdilution; type: cell-based; settings: Staphylococcus, MRSA
Method: as §2

[6] = tested on: methicillin-resistant Staphylococcus epidermidis (MRSE; ATCC 35984); test: as above; type: cell-based; settings: for MIC: Table 2, ATCC 35984, read-out: MRSE MIC
Method: as §2

[7] = tested on: vancomycin-resistant Enterococcus faecium (VRE, ATCC 700221); test: as above; type: cell-based
Method: as §2

MRSA BAA-1707 = test: Calgary Biofilm Device (CBD) MBC/MBEC determination; type: cell-based, Staphylococcus aureus; settings: Table 4, CBD
Method: as §1

A. baumannii = test: MIC, antibacterial profile of broxyquinoline and HQ-1 (FIG. 2A); type: cell-based, Acinetobacter baumannii
S. aureus = test: as above; type: cell-based; settings: Staphylococcus aureus
S. epidermidis = test: as above; type: cell-based; settings: Staphylococcus epidermidis
[8] = Table 2, biofilm eradication, second value of cell

In the case of `Cc1c(Br)cc(NCc2ccc3c(Br)cc(Br)c(O)c3n2)cc1Br` [HQ-7], the MBC ([1]; Staphylococcus epidermidis, Table 2, read-out: MRSE ATCC 35984 MBC) is reported as 250 µM (≈ 145 µg/mL), the MIC [2] is reported as 9.38 to 75 µM (≈ 5.44 to 43.5 µg/mL) and the “% Haemolysis at 200 μM” value (human red blood cells; human, 1 h, pH 7.2) is reported as no more than 1%. It also gave an MBC ([3]; Staphylococcus aureus, MRSA, Table 2, read-out: MRSA-2 Clinical Isolate MBC) of 500 µM (≈ 290 µg/mL), an MBC ([4]; Enterococcus, Table 2, read-out: VRE ATCC 700221 MBC) of 125 µM (≈ 72.5 µg/mL) and an MIC (MRSA-2; Staphylococcus aureus, 200 μM ammonium iron (II) sulfate hexahydrate, read-out: MIC w/Fe^2+) greater than 100 µM. It also gave an MIC (MRSA-2; Staphylococcus aureus, 200 μM copper (II) sulfate, read-out: MIC w/Cu^2+) greater than 100 µM, an MIC (MRSA-2; Staphylococcus aureus, 200 μM magnesium (II) sulfate, read-out: MIC w/Mg^2+) greater than 100 µM and an MIC (MRSA-2; Staphylococcus aureus, 200 μM zinc (II) chloride, read-out: MIC w/Zn^2+) greater than 100 µM. It also gave an MIC ([5]; Table 2, 2 to 6 independent experiments, read-out: MRSA-2 MIC) of 18.8 µM (≈ 10.9 µg/mL), an MIC ([5]; read-out: MIC) greater than 100 µM and an MIC ([6]; Staphylococcus epidermidis) of 9.38 µM (≈ 5.44 µg/mL). It also gave an MIC ([7]; Table 2, ATCC 700221, read-out: VRE MIC) of 75 µM (≈ 43.5 µg/mL).

In the case of `Cc1ccc2c(Br)cc(Br)c(O)c2n1` [HQ-1, reference compound], the “MRSE ATCC 35984 MBEC” value [1, 8] is reported as 93.8 µM, the MBC ([1]; Table 2, read-out: MRSE ATCC 35984 MBC) is reported as 31.3 µM (≈ 9.92 µg/mL) and the “MRSE MBEC” value ([1]; Table 3, biofilm eradication, second value of cell) is reported as 93.8 µM. For the same compound, the MBC ([1]; Table 3, read-out: MRSE MBC) was 31.3 µM (≈ 9.92 µg/mL), the “% Haemolysis at 200 μM” value (human red blood cells; Table 2, human red blood cells, 1 hour at 37° C.) was no more than 1% and the “% Haemolysis at 200 μM” value (human red blood cells; Table 3, human red blood cells) was no more than 1%. For the same compound, the “MRSA-2 Clinical Isolate MBEC” value ([3]; Table 2, biofilm eradication, second value of MBC/MBEC cell) was 188 µM, the MBC ([3]; Table 2, read-out: MRSA-2 Clinical Isolate MBC) was 23.5 µM (≈ 7.45 µg/mL) and the “MRSA-2 MBEC” value ([3]; Table 3, biofilm eradication, second value of MBC/MBEC cell) was 188 µM. For the same compound, the MBC ([3]; Table 3, read-out: MRSA-2 MBC) was 23.5 µM (≈ 7.45 µg/mL), the “MRSA BAA-1707 MBEC” value (MRSA BAA-1707; biofilm eradication, second value of cell) was 46.9 µM and the MBC (MRSA BAA-1707; planktonic killing, first value of cell, read-out: MRSA BAA-1707 MBC) was 62.5 µM (≈ 19.8 µg/mL). The “VRE ATCC 700221 MBEC” value [4, 8] was 1.5 µM, the MBC ([4]; Table 2, read-out: VRE ATCC 700221 MBC) was 2.0 µM (≈ 0.634 µg/mL) and the “VRE MBEC” value ([4]; Table 3, biofilm eradication, second value of cell, footnote c = lowest concentration tested) was 1.5 µM. The MBC ([4]; Table 3, footnote c = lowest concentration tested, read-out: VRE MBC) was 2.0 µM (≈ 0.634 µg/mL), the MIC (A. baumannii) was 32 µg/mL and the MIC (A. baumannii; read-out: MIC) was 100 µM. For the same compound, the “MIC w/Fe^2+” value (MRSA-2; 200 μM ammonium iron (II) sulfate hexahydrate) was >100^b μM and >100^c μM, the “MIC w/Cu^2+” value (MRSA-2; 200 μM copper (II) sulfate) was 25^b μM and 25^c μM and the MIC (MRSA-2; 200 μM magnesium (II) sulfate, read-out: MIC w/Mg^2+) was 1.56 µM. For the same compound, the “MIC w/Zn^2+” value (MRSA-2; 200 μM zinc (II) chloride) was 0.15^a,b μM and 0.1^a,c μM, the MIC [6] was 0.39 µM (≈ 0.124 µg/mL) and the “MRSE MIC” value ([6]; Table 3) was 0.30^a μM. For the same compound, the “VRE MIC” value ([7]; Table 3) was 2.35^a μM.

In the case of `Oc1c(Br)cc(Br)c2cccnc12` [Broxyquinoline], the MIC (S. aureus) is reported as 12.5 µM and 4 µg/mL, the MIC (S. epidermidis) is reported as 12.5 µM and 4 µg/mL and the MIC (A. baumannii; Acinetobacter baumannii, read-out: MIC) is reported as 12.5 µM and 4 µg/mL.
